The values that follow come from US12281122B1, “PI3K inhibitors” (Cogent Biosciences, Inc., priority 2023, dated 2025).

In test [1] the test system is T47D (PI3Kα-H1047R) cell line. Briefly: HTRF phospho-AKT(S473) cell assay in T47D cells. In kind it is cell-based, human. The following applies: Homo sapiens; HTRF phospho-AKT(S473), T47D (PI3Kα-H1047R) cells, 2 hours compound incubation. The gist of the method: (§1)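 HTRF read-out of phospho-AKT(S473) in lysates gave IC50 values after 2 h compound exposure at 37° C. Dose series was 12 points at 1:3, topping at 5 μM for T47D and 10 μM for SKBR3. Only SKBR3 received 70 ng/ml PDGF-BB during the last 15 minutes.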
(In general: In TR-FRET formats the signal depends on donor and acceptor labels being close together.)

In test [2] the test system is SKBR3 (PI3Kα-Wild Type) cell line. In words: HTRF phospho-AKT(S473) cell assay in SKBR3 cells. In kind it is cell-based, human. Conditions: Homo sapiens, SK-BR-3; HTRF phospho-AKT(S473), SKBR3 (PI3Kα-Wild Type) cells, 2 hours compound incubation, PDGF-BB stimulated. The gist of the method:
as §1

In general, IC50 refers to the midpoint of a concentration-inhibition curve. Low values mean higher potency, high ones lower potency.

Take `Cc1cc([C@@H](C)Nc2ccc(Cl)nc2C(=O)NS(C)(=O)=O)c2nc(N3CCC(c4nc(C(F)(F)F)n(C)n4)CC3)n(C)c(=O)c2c1` [Compound 458, (R)-6-chloro-3-((1-(3,6-dimethyl-2-(4-(1-methyl-5-(trifluoromethyl)-1H-1,2,4-triazol-3-yl)piperidin-1-yl)-4-oxo-3,4-dihydroquinazolin-8-yl)ethyl)amino)-N-(methylsulfonyl) picolinamide]: the 50% inhibitory concentration (IC50) in test [1] is 250 to 500 nM; in test [2], not below 5000 nM.

On to `Cc1cc([C@@H](C)Nc2ccc(Cl)nc2C(=O)NS(C)(=O)=O)c2nc(N3CCC(c4nc(C)n(C)n4)CC3)n(C)c(=O)c2c1` [Compound 459, (R)-6-chloro-3-((1-(2-(4-(1,5-dimethyl-1H-1,2,4-triazol-3-yl)piperidin-1-yl)-3,6-dimethyl-4-oxo-3,4-dihydroquinazolin-8-yl)ethyl)amino)-N-(methylsulfonyl) picolinamide], for which the IC50 in test [1] was less than 250 nM; in test [2], not below 5000 nM.

Consider `Cc1cc([C@@H](C)Nc2ccc(Cl)nc2C(=O)NS(C)(=O)=O)c2nc(N3C[C@@H]4[C@H](C3)[C@H]4c3ccnn3C3CC3)n(C)c(=O)c2c1` [Compound 460, 6-chloro-3-(((R)-1-(2-((1R,5S,6R)-6-(1-cyclopropyl-1H-pyrazol-5-yl)-3-azabicyclo[3.1.0]hexan-3-yl)-3,6-dimethyl-4-oxo-3,4-dihydroquinazolin-8-yl)ethyl)amino)-N-(methylsulfonyl) picolinamide], for which the results for the 50% inhibitory concentration (IC50) in test [1] and in test [2] were less than 250 nM and 1000 to 5000 nM, respectively.

For `COc1c([C@H]2[C@@H]3CN(c4nc5c([C@@H](C)Nc6ccc(Cl)nc6C(=O)NS(C)(=O)=O)cc(C)cc5c(=O)n4C)C[C@@H]32)cnn1C` [Compound 461, 6-chloro-3-(((R)-1-(2-((1R,5S,6S)-6-(5-methoxy-1-methyl-1H-pyrazol-4-yl)-3-azabicyclo[3.1.0]hexan-3-yl)-3,6-dimethyl-4-oxo-3,4-dihydroquinazolin-8-yl)ethyl)amino)-N-(methylsulfonyl) picolinamide], the IC50 in test [1] is less than 250 nM; in test [2], 1000 to 5000 nM.

Regarding `Cc1cc([C@@H](C)Nc2ccc(Cl)nc2C(=O)NS(C)(=O)=O)c2nc(N3C[C@@H]4[C@H](C3)[C@H]4c3nn(C)c(C)c3F)n(C)c(=O)c2c1` [Compound 462, 6-chloro-3-(((R)-1-(2-((1R,5S,6R)-6-(4-fluoro-1,5-dimethyl-1H-pyrazol-3-yl)-3-azabicyclo[3.1.0]hexan-3-yl)-3,6-dimethyl-4-oxo-3,4-dihydroquinazolin-8-yl)ethyl)amino)-N-(methylsulfonyl) picolinamide], the IC50 in test [1] is less than 250 nM; in test [2] it was not below 5000 nM.

For the molecule `Cc1cc([C@@H](C)Nc2ccc(Cl)nc2C(=O)NS(C)(=O)=O)c2nc(N3CCC(c4nn(C(F)F)cc4F)CC3)n(C)c(=O)c2c1` [Compound 463, (R)-6-chloro-3-((1-(2-(4-(1-(difluoromethyl)-4-fluoro-1H-pyrazol-3-yl)piperidin-1-yl)-3,6-dimethyl-4-oxo-3,4-dihydroquinazolin-8-yl)ethyl)amino)-N-(methylsulfonyl) picolinamide], the figures for the IC50 in test [1] and in test [2] were 250 to 500 nM and not below 5000 nM, respectively.

On to `Cc1cc([C@@H](C)Nc2ccc(Cl)nc2C(=O)NS(C)(=O)=O)c2nc(N3CCC(c4c(F)cnn4C(F)F)CC3)n(C)c(=O)c2c1` [Compound 464, (R)-6-chloro-3-((1-(2-(4-(1-(difluoromethyl)-4-fluoro-1H-pyrazol-5-yl)piperidin-1-yl)-3,6-dimethyl-4-oxo-3,4-dihydroquinazolin-8-yl)ethyl)amino)-N-(methylsulfonyl) picolinamide], for which the IC50 in test [1] was 250 to 500 nM; in test [2] it was not below 5000 nM.
